Experiment [1] deals with C48-resistant Mtb H37Rv mutants. The experiment is classed as cell-based, Mycobacterium tuberculosis. As to conditions: for susceptibility of C48-resistant mutants: compared with parent strain.
Experiment [2] concerns drug sensitive and resistant Mtb isolates. Kind of experiment: microbe, parasite or virus in culture. The experiment is classed as cell-based. To be noted: Mycobacterium tuberculosis.
The test system of the next experiment is WT H37Rv. The experiment is classed as cell-based, Mycobacterium tuberculosis.
For experiment [3], the system named is H37Rv ΔbioA TetON-5 (BioA-UE). The experiment is classed as cell-based. As to conditions: Fig. 2C.
The test system of experiment [4] is H37Rv ΔbioA TetON-1 (BioA-OE). It is filed as cell-based. To be noted: for normalized growth (no drug = 100): Fig. 2C, BioA-OE.
[5] abbreviates: M. tb CRC clinical strain K5072429, DS.

We go through four compounds from article doi:10.1101/2025.09.24.678246 (bioRxiv, 2025).

In brackets after ≈: the same amount, converted by molar mass. Several values for one entry are separate records, joined by “and”; a condition that tells them apart may be missing. Identical values can stand only once. Entries after “also recorded” stand apart in the source; their conditions may differ. Like-named read-outs stand apart in the source and are kept apart here. A value given as a limit tells only on which side of the number the result lay.

For `O=C1CCc2cc(N3CCN(C(=O)c4ccc(F)c(Br)c4)CC3)ncc21` [C48], in experiment [1], the “MIC shift compared to WT” value is recorded as “Large; also recorded: Medium”. For the same compound, in experiment [1], the “increase in MIC of 30 resistant mutants compared to WT H37Rv” value is reported as “approximately 300 fold”. For the same compound, the “resistance level of bioA mutant Met91Ile” value in experiment [1] is “high-level resistance”. In addition, the “resistance level of bioA mutants Met91Val, Met91Thr, Cys168Tyr” value in experiment [1] is on record as “medium-level resistance”. Also, the MIC in experiment [2] (setting [5]) was < 0.024 µM; in experiment [2] (M. tb Erdman, DS), 0.024 µM (≈ 0.01 µg/mL); in experiment [2] (M. tb HN878, DS) it was 0.0156 µM (≈ 0.00652 µg/mL); in experiment [2] (M. tb K03b00DS, DS), 0.047 µM (≈ 0.0197 µg/mL); in experiment [2] (M. tb K04b00DS, DS) it was 0.023 µM (≈ 0.00962 µg/mL); in experiment [2] (M. tb K05b00DS, DS) it was 0.0156 µM (≈ 0.00652 µg/mL). Further, the MIC is 0.023 µM (≈ 0.00962 µg/mL) in experiment [2] (M. tb K07b00DS, DS); < 0.024 µM in experiment [2] (M. tb K08b00DS, DS); 0.023 µM (≈ 0.00962 µg/mL) in experiment [2] (M. tb K09b00DS, DS); < 0.024 µM in experiment [2] (M. tb K10b00DS, DS); 0.0625 µM (≈ 0.0261 µg/mL) in experiment [2] (M. tb K11b00DS, DS); 0.023 µM (≈ 0.00962 µg/mL) in experiment [2] (M. tb K12b00DS, DS). Further, the MIC in experiment [2] (M. tb K13b00DS, DS) is 0.023 µM (≈ 0.00962 µg/mL); in experiment [2] (M. tb K14b00DS, DS), 0.0156 µM (≈ 0.00652 µg/mL); in experiment [2] (M. tb K15b00DS, DS) it was < 0.024 µM; in experiment [2] (M. tb K16b00DS, DS) it was < 0.024 µM; in experiment [2] (M. tb K17b00DS, DS), < 0.024 µM; in experiment [2] (M. tb K35b00DS, DS) it was < 0.024 µM. Besides, the MIC in experiment [2] (M. tb NIH1B314, DR) was 0.0313 µM (≈ 0.0131 µg/mL); in experiment [2] (M. tb NIH_G1DS, DS) it was < 0.024 µM; in experiment [2] (M. tb NIH_G9R, DR), 0.0156 µM (≈ 0.00652 µg/mL); in experiment [2] (M. tb NIH_G10R, DR), 0.0313 µM (≈ 0.0131 µg/mL); in experiment [2] (M. tb NIH_G11R, DR) it was 0.0156 µM (≈ 0.00652 µg/mL); in experiment [2] (M. tb NIH_G12, DS), < 0.024 µM. Further, the MIC was < 0.024 µM in experiment [2] (M. tb NIH_G16R, DR); < 0.024 µM in experiment [2] (M. tb NIH_G17R, DR); < 0.024 µM in experiment [2] (M. tb NIH_G22R, DR); < 0.024 µM in experiment [2] (M. tb NIH_GA36, DS); < 0.024 µM in experiment [2] (M. tb NIH_SA3, DS); < 0.024 µM in experiment [2] (M. tb NIH_SA23, DS). Moreover, the MIC in experiment [2] (M. tb NIH_SA27, DS) is < 0.024 µM; in experiment [2] (M. tb NIH_SA39, DS), < 0.024 µM; in experiment [2] (M. tb NIH_SA43, DS) it was < 0.024 µM; in experiment [2] (M. tb NIH_SA125, DS), < 0.024 µM. In addition, in the experiment with WT H37Rv, the “frequency of spontaneously resistant mutants” value is given as “approximately 3×10^−8”. In addition, the “normalized growth (no drug = 100)” value in experiment [3] ([C48] 0.02 µM) was 85.8582 and 52.7583 and 51.6425; in experiment [3] ([C48] 0.0434 µM) it was 81.0305 and 46.7008 and 49.5132; in experiment [3] ([C48] 0.443 µM) it was 0.2448 and 0.3701 and 0.3017; in experiment [3] ([C48] 4.52 µM) it was 0.6433 and 0.5522 and 0.8369; in experiment [3] ([C48] 21.3 µM), 0.723 and 0.8369 and 1.008; in experiment [3] ([C48] 46.1 µM), 1.133 and 0.9394 and 1.076. Also, the “normalized growth (no drug = 100)” value is 0.9037 and 0.9849 and 0.9735 in experiment [3] ([C48] 100 µM); 99.1764 and 99.8577 and 98.7033 in experiment [4] ([C48] 0.02 µM); 95.2869 and 101.385 and 96.6682 in experiment [4] ([C48] 0.0434 µM); 94.175 and 96.4099 and 95.7333 in experiment [4] ([C48] 0.0941 µM); 92.9284 and 86.8526 and 87.9532 in experiment [4] ([C48] 0.204 µM); 34.2705 and 25.7913 and 36.1572 in experiment [4] ([C48] 0.443 µM). For the same compound, the “normalized growth (no drug = 100)” value in experiment [4] ([C48] 0.96 µM) is 3.4759 and 3.24 and 3.555; in experiment [4] ([C48] 4.52 µM), 1.679 and 2.083 and 1.432; in experiment [4] ([C48] 21.3 µM) it was 2.409 and 2.139 and 2.1956; in experiment [4] ([C48] 46.1 µM), 1.96 and 2.297 and 2.072; in experiment [4] ([C48] 100 µM) it was 1.477 and 2.083 and 1.862. Moreover, the “potency with increasing expression of BioA” value in experiment [4] (ATc-inducible BioA overexpression) is given as “decreases monotonically”.

`NNC(=O)c1ccncc1` [INH, isoniazid, reference compound]: the “susceptibility of C48-resistant mutants” value in experiment [1] is “retained susceptibility”.

Take `CC(=O)NC[C@H]1CN(c2ccc(N3CCOCC3)c(F)c2)C(=O)O1` [Linezolid, reference compound]: the MIC in experiment [2] (M. tb CDC1551, DS) turned out to be 1.2 µM (≈ 0.405 µg/mL); in experiment [2] (setting [5]), 1.2 µM (≈ 0.405 µg/mL); in experiment [2] (M. tb Erdman, DS), 1.6 µM (≈ 0.54 µg/mL); in experiment [2] (M. tb K03b00DS, DS), 2.3 µM (≈ 0.776 µg/mL); in experiment [2] (M. tb K04b00DS, DS) it was 1.2 µM (≈ 0.405 µg/mL); in experiment [2] (M. tb K07b00DS, DS) it was 2.3 µM (≈ 0.776 µg/mL). Further, the MIC in experiment [2] (M. tb K09b00DS, DS) stood at 1.2 µM (≈ 0.405 µg/mL); in experiment [2] (M. tb K13b00DS, DS), 1.2 µM (≈ 0.405 µg/mL); in experiment [2] (M. tb K14b00DS, DS), 1.2 µM (≈ 0.405 µg/mL); in experiment [2] (M. tb K35b00DS, DS), 1.2 µM (≈ 0.405 µg/mL); in experiment [2] (M. tb NIH_G1DS, DS), 2.3 µM (≈ 0.776 µg/mL); in experiment [2] (M. tb NIH_G9R, DR) it was 2.3 µM (≈ 0.776 µg/mL). The MIC in experiment [2] (M. tb NIH_G11R, DR) came out at 2.3 µM (≈ 0.776 µg/mL); in experiment [2] (M. tb NIH_G12, DS), 2.3 µM (≈ 0.776 µg/mL); in experiment [2] (M. tb NIH_G16R, DR), 3.13 µM (≈ 1.06 µg/mL); in experiment [2] (M. tb NIH_G17R, DR) it was 3.13 µM (≈ 1.06 µg/mL); in experiment [2] (M. tb NIH_G22R, DR), 3.13 µM (≈ 1.06 µg/mL); in experiment [2] (M. tb NIH_GA36, DS), 1.6 µM (≈ 0.54 µg/mL).

As to `CO[C@H]1/C=C/O[C@@]2(C)Oc3c(C)c(O)c4c(O)c(c(/C=N/N5CCN(C)CC5)c(O)c4c3C2=O)NC(=O)/C(C)=C\C=C\[C@H](C)[C@H](O)[C@@H](C)[C@@H](O)[C@@H](C)[C@H](OC(C)=O)[C@@H]1C` [Rifampicin, rifampicin, reference compound], the “susceptibility of C48-resistant mutants” value in experiment [1] is “retained susceptibility”.
